Seven compounds from ChEMBL document CHEMBL5291721, “A preclinical secondary pharmacology resource illuminates target-adverse drug reaction associations of marketed drugs” (Nat Commun, 2023) can be followed below.

Targets include Adenosine receptor A2a (Homo sapiens, UniProt P29274); Motilin receptor (Homo sapiens, UniProt O43193); Histamine H3 receptor (Homo sapiens, UniProt Q9Y5N1).
In another experiment the target is Cannabinoid receptor 1 (Homo sapiens, UniProt P21554). Format: functional, cell-based.
Experiment [1] addresses 5-hydroxytryptamine receptor 2B (Homo sapiens, UniProt P41595). Format: functional, cell-based.
Experiment [2] concerns the target T1, Neuropeptide Y receptor type 1 (Homo sapiens, UniProt P25929).
T1 sequence (P25929 whole entry): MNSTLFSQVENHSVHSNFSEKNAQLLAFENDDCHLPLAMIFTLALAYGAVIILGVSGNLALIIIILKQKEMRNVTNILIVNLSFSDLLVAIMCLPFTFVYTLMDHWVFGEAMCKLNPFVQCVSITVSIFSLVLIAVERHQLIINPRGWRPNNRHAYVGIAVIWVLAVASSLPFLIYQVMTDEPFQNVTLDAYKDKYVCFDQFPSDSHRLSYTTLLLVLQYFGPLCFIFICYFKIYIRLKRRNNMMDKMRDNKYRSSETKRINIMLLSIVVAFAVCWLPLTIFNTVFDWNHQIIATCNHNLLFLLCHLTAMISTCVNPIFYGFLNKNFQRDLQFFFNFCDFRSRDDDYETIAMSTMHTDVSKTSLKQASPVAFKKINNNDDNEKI

The target of experiment [3] is Sodium-dependent noradrenaline transporter (Homo sapiens, UniProt P23975).
For experiment [4], the target named is Beta-2 adrenergic receptor (Homo sapiens, UniProt P07550).
For experiment [5], the target named is T2, Alpha-2A adrenergic receptor (Homo sapiens, UniProt P08913).
T2 sequence (P08913 whole entry): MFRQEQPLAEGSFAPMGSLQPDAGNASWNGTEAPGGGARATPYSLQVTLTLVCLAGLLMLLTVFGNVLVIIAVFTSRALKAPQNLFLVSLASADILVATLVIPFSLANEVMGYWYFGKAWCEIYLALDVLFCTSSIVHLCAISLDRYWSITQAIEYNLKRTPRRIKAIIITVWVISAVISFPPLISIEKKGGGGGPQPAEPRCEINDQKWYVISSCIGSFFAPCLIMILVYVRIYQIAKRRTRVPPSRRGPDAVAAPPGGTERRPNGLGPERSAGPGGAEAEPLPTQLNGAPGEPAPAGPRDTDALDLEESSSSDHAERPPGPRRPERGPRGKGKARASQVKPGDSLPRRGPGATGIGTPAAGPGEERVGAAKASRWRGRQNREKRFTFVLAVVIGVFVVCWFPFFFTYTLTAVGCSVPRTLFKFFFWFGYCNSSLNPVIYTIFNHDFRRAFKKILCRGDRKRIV
Format: functional, cell-based.

Experiment [6] has as its target T3, 5-hydroxytryptamine receptor 2C (Homo sapiens, UniProt P28335).
T3 sequence (P28335 whole entry): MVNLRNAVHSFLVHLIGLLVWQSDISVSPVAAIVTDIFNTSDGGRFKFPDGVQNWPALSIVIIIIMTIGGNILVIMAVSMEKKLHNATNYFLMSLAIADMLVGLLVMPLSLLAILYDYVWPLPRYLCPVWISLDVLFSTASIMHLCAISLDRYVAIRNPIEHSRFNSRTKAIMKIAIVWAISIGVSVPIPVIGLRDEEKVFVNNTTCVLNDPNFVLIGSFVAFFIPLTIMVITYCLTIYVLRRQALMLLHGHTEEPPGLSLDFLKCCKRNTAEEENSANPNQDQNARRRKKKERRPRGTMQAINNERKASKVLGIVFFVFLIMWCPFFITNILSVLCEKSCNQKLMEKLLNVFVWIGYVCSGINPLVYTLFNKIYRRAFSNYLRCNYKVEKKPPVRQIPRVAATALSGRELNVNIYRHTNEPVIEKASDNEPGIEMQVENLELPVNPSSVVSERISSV

Experiment [7] addresses Sodium-dependent dopamine transporter (Homo sapiens, UniProt Q01959).
Experiment [8] deals with T4, Gamma-aminobutyric acid receptor subunit alpha-1 (Rattus norvegicus, UniProt P62813). Format: functional.
Experiment [9] has as its target 5-hydroxytryptamine receptor 2A (Homo sapiens, UniProt P28223). Format: functional, cell-based.
The target of experiment [10] is T4, Gamma-aminobutyric acid receptor subunit alpha-1.
A further experiment has as its target Histamine H2 receptor (Homo sapiens, UniProt P25021). Format: functional, cell-based.
Experiment [11] has as its target Growth hormone secretagogue receptor type 1 (Homo sapiens, UniProt Q92847).
Experiment [12] has as its target Beta-1 adrenergic receptor (Homo sapiens, UniProt P08588). Format: functional.
For experiment [13], the target named is cGMP-inhibited 3',5'-cyclic phosphodiesterase 3A (Homo sapiens, UniProt Q14432). Format: functional.
In experiment [14] the target is T5, Muscarinic acetylcholine receptor M1 (Homo sapiens, UniProt P11229).
T5 sequence (P11229 whole entry): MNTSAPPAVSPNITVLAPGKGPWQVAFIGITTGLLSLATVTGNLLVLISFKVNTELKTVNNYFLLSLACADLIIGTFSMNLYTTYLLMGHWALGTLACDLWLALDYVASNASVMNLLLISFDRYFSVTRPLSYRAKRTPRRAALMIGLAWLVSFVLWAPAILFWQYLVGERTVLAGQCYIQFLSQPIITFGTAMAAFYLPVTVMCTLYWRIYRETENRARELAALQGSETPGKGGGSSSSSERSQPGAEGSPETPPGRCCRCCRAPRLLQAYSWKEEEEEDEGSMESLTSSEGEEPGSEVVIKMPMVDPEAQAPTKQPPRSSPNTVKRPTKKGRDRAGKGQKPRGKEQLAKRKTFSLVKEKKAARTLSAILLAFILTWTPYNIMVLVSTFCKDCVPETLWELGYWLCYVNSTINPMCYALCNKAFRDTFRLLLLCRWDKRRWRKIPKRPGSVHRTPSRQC
Format: functional.

Experiment [15] has as its target Glutamate receptor ionotropic, NMDA 1 (Rattus norvegicus, UniProt P35439).
In experiment [16] the target is Sodium-dependent serotonin transporter (Homo sapiens, UniProt P31645).
Further: assay procedure not described here.

5-hydroxytryptamine receptor 2A, sequence (P28223 whole entry): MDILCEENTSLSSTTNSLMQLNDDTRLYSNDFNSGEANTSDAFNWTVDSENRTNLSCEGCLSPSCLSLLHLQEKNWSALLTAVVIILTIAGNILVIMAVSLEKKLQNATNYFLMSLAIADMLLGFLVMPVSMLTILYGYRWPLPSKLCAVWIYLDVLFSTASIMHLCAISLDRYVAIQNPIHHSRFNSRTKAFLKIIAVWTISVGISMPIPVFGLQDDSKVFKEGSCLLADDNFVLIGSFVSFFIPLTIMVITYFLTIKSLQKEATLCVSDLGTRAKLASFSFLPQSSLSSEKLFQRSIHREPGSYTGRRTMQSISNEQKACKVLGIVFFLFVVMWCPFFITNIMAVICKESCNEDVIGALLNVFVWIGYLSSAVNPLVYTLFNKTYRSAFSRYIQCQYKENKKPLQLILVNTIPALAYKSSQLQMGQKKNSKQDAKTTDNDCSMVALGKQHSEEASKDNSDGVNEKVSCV
T4 sequence (P62813 whole entry): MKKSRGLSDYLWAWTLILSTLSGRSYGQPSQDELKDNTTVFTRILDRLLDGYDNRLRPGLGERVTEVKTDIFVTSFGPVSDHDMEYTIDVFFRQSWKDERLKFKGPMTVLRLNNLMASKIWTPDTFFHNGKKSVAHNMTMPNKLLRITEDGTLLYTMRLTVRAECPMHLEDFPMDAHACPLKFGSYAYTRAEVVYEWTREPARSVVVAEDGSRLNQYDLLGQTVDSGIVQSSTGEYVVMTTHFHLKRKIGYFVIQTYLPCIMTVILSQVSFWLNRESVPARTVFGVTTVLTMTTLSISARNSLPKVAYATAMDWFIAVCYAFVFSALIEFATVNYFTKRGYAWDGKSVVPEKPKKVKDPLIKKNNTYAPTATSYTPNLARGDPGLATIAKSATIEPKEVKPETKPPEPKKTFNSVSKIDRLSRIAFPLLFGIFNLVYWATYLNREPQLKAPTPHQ
5-hydroxytryptamine receptor 2B, sequence (P41595 whole entry): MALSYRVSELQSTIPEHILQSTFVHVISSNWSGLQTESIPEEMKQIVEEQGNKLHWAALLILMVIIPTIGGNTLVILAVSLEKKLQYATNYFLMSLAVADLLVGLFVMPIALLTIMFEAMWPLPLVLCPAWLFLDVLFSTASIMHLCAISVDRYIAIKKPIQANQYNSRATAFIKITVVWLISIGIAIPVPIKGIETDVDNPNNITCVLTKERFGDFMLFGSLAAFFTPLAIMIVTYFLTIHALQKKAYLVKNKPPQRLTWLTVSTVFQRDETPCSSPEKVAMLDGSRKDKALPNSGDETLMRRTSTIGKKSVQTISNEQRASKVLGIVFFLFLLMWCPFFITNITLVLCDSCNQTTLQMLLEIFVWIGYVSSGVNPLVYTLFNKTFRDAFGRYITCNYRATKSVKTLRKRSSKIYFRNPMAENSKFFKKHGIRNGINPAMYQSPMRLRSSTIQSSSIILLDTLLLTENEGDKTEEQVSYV
Histamine H2 receptor, sequence (P25021 whole entry): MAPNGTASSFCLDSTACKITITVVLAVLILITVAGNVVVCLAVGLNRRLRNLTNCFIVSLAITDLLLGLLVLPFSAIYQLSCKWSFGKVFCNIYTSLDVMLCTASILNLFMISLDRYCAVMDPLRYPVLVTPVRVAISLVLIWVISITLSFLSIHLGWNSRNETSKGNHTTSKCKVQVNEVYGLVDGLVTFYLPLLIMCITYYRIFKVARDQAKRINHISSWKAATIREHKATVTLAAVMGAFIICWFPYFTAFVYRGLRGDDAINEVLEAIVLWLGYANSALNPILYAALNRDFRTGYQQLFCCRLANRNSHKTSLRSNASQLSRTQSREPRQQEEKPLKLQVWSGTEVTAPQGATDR
cGMP-inhibited 3',5'-cyclic phosphodiesterase 3A, sequence (Q14432 whole entry): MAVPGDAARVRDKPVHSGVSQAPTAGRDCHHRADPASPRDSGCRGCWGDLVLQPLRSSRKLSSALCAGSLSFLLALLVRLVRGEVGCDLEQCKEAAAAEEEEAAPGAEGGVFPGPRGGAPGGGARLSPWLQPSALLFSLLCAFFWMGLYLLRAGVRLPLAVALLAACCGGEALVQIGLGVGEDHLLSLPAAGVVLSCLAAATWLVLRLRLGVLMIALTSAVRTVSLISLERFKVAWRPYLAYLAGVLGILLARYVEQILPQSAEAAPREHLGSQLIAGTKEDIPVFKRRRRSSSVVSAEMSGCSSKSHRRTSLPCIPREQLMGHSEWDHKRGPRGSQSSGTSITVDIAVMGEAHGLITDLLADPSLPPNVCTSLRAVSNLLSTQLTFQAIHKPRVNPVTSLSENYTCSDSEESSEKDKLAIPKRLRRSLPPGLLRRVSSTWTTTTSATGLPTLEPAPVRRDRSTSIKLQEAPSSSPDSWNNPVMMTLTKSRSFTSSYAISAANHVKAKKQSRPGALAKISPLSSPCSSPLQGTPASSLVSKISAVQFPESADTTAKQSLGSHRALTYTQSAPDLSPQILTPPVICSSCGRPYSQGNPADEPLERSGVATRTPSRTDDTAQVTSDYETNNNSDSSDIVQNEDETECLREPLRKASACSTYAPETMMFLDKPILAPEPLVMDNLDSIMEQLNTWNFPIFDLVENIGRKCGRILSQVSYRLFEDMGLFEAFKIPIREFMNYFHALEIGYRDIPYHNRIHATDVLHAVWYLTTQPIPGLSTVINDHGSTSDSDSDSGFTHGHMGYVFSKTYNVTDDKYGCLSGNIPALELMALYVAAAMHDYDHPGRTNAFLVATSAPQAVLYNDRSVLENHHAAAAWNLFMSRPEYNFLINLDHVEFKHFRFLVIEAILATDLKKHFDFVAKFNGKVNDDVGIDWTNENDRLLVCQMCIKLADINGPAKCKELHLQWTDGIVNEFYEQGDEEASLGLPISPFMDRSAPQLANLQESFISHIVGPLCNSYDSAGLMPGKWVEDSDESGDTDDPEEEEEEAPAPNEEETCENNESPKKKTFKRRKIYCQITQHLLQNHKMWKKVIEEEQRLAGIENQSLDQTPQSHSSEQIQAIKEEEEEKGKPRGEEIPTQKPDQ
Sodium-dependent noradrenaline transporter, sequence (P23975 whole entry): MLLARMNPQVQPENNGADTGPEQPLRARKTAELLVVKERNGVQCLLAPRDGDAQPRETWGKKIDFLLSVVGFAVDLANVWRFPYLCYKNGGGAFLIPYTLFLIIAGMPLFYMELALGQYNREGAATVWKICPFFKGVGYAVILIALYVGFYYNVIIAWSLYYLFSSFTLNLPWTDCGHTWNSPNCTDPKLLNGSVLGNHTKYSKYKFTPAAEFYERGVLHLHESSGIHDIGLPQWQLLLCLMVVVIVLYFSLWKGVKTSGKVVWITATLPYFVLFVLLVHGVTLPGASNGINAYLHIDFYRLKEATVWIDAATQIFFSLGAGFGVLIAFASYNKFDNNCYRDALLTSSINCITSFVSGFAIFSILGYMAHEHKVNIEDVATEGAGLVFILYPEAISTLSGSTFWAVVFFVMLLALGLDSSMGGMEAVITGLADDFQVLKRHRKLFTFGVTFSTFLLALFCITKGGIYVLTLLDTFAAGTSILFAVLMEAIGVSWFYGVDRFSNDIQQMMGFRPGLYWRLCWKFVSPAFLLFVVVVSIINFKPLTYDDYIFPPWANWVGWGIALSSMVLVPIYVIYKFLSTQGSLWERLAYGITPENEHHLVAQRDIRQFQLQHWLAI
Cannabinoid receptor 1, sequence (P21554 whole entry): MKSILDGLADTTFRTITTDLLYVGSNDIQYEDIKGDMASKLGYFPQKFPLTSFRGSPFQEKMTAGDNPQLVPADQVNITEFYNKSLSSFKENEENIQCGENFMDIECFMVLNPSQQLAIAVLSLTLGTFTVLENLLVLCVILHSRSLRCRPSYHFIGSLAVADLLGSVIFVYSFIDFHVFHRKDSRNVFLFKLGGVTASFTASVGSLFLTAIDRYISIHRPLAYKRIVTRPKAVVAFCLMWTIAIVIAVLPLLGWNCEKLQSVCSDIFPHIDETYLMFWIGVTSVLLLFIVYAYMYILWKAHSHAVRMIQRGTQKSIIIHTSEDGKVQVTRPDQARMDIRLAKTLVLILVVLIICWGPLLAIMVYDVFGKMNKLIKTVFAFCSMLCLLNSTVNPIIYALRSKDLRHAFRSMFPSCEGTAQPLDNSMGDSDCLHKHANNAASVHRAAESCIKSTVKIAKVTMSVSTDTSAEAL
Beta-1 adrenergic receptor, sequence (P08588 whole entry): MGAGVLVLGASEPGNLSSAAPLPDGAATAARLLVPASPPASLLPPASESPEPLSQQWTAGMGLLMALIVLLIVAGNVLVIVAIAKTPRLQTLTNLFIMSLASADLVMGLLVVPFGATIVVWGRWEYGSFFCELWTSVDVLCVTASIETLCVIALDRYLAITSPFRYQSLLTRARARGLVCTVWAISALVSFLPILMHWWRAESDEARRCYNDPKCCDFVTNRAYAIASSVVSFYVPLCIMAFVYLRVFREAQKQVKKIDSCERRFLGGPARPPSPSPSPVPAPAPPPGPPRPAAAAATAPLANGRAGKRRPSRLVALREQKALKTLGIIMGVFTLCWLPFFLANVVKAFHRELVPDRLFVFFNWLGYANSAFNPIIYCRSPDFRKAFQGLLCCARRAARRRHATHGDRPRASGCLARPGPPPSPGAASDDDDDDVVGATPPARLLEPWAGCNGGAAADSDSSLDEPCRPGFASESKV
Growth hormone secretagogue receptor type 1, sequence (Q92847 whole entry): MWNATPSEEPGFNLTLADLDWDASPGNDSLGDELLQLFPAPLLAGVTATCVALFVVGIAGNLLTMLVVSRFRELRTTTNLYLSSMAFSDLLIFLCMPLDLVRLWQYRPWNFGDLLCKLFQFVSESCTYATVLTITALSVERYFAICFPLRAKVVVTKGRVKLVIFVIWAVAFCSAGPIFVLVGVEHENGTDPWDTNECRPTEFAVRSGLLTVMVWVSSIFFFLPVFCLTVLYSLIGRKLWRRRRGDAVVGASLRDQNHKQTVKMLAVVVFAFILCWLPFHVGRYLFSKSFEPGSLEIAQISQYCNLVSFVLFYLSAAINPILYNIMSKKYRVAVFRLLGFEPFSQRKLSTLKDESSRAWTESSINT

Take TOCOFERSOLAN: the half-maximal activity concentration (AC50) (on Adenosine receptor A2a; at Cannabinoid receptor 1; in experiment [1]; in experiment [2]; in experiment [3]; in experiment [4]) was above 30 µM in each case. Besides, the AC50 (in experiment [5]; at Motilin receptor; in [6]; in [7]; in experiment [8]; in experiment [9]) was above 30 µM each time. The AC50 – broadly, the concentration at which the activity in the assay is half-maximal – is above 30 µM on Histamine H3 receptor; above 30 µM in [10]; above 30 µM on Histamine H2 receptor; above 30 µM in experiment [11]; above 30 µM in experiment [12]; above 10 µM in [13]. For the same compound, the AC50 in experiment [14] and in experiment [15] was above 30 µM each time.

On to `O=C1NCCN1CCN1CCC(c2cn(-c3ccc(F)cc3)c3ccc(Cl)cc23)CC1` [SERTINDOLE], for which the AC50 on Adenosine receptor A2a was above 30 µM; at Cannabinoid receptor 1, 20 µM; in experiment [1], 0.6 µM; in experiment [16], 3.4 µM; in [2], above 30 µM; in experiment [3], 2.7 µM. The concentration at half-maximal activity (AC50) was 4.3 µM at Motilin receptor; 1.7 µM in experiment [7]; above 30 µM in [8]; above 30 µM on Histamine H3 receptor; above 30 µM in [10]; above 30 µM at Histamine H2 receptor. Moreover, the AC50 is 28 µM in [11], above 30 µM in [13], 5 µM in experiment [14] and above 30 µM in experiment [15].

As for `[H]/N=C(/N)c1ccc(NCc2nc3cc(C(=O)N(CCC(=O)O)c4ccccn4)ccc3n2C)cc1` [DABIGATRAN], the AC50 (on Adenosine receptor A2a; at Cannabinoid receptor 1; in experiment [1]; in experiment [16]; in experiment [2]; in experiment [3]) was above 30 µM in each case. Further, the AC50 (in experiment [5]; on Motilin receptor; in experiment [6]; in [7]; in experiment [8]; on Histamine H3 receptor) was above 30 µM throughout. The AC50 (in [10]; on Histamine H2 receptor; in [11]; in [12]; in experiment [13]; in experiment [14]) was above 30 µM each time. This compound displayed an AC50 in experiment [15] above 30 µM.

Regarding `COc1ccc2cccc(CCNC(C)=O)c2c1` [AGOMELATINE], the half-maximal activity concentration (AC50) on Adenosine receptor A2a is above 30 µM; on Cannabinoid receptor 1, above 30 µM; in experiment [1], 2.07 µM; in experiment [16], above 10 µM; in experiment [2], above 30 µM; in experiment [3] it was above 10 µM. Moreover, the AC50 in experiment [4] was above 10 µM; in experiment [5], above 30 µM; on Motilin receptor it was above 10 µM; in experiment [7] it was above 10 µM; in [8], above 10 µM; on Histamine H3 receptor, above 10 µM. Further, the AC50 in experiment [10] was above 10 µM; on Histamine H2 receptor, above 30 µM; in experiment [11], above 30 µM; in [12] it was above 10 µM; in experiment [13] it was above 30 µM; in [14], above 10 µM. Besides, in experiment [15], the AC50 was above 10 µM.

Take `Cc1c(C(=O)Nc2ccc(N3C[C@@H](C)O[C@@H](C)C3)nc2)cccc1-c1ccc(OC(F)(F)F)cc1` [SONIDEGIB]: the concentration at half-maximal activity (AC50) is above 30 µM on Adenosine receptor A2a; above 10 µM in experiment [16]; above 30 µM in [2]; above 10 µM in experiment [3]; above 10 µM in experiment [4]; above 10 µM on Motilin receptor. In addition, the concentration at half-maximal activity (AC50) was above 30 µM in experiment [6]; above 10 µM in [7]; above 10 µM in experiment [8]; above 10 µM at Histamine H3 receptor; above 10 µM in [10]; above 30 µM in [11]. Also, the AC50 in experiment [12] was above 10 µM; in experiment [13] it was above 30 µM; in experiment [14] it was above 10 µM; in experiment [15], above 10 µM.

As to `Cc1ccc(-c2nc3ccc(C)cn3c2CC(=O)N(C)C)cc1` [ZOLPIDEM], the AC50 at Adenosine receptor A2a was above 30 µM; on Cannabinoid receptor 1, above 30 µM; in [1] it was 29 µM; in experiment [16], above 30 µM; in [2] it was above 30 µM; in [3] it was above 30 µM. The concentration at half-maximal activity (AC50) (in experiment [4]; in [5]; at Motilin receptor; in [6]; in [7]; in [9]) was above 30 µM in each case. Besides, the AC50 is above 30 µM on Histamine H3 receptor; above 10 µM on Histamine H2 receptor; above 30 µM in [11]; above 30 µM in experiment [12]; above 30 µM in experiment [13]; above 30 µM in experiment [15].

For `COC(=O)[C@H]1[C@@H](OC(=O)c2ccccc2)C[C@@H]2CC[C@H]1N2C` [COCAINE], the half-maximal activity concentration (AC50) (on Adenosine receptor A2a; on Cannabinoid receptor 1; in [1]; in [2]; in [4]; in [5]) was above 30 µM throughout. Moreover, the AC50 (at Motilin receptor; in experiment [6]; in experiment [8]; in experiment [9]; on Histamine H3 receptor; in experiment [10]) was above 30 µM each time. In addition, the AC50 (at Histamine H2 receptor; in experiment [11]; in experiment [12]; in experiment [13]; in experiment [14]; in [15]) was above 30 µM each time.
